In ChEMBL document CHEMBL4732150 (J Med Chem, 2021):

Tests used:
[1] = (§1) Drug metabolism in CD1 mouse liver microsomes assessed as 3,3-dideuterio-N-[2-(2-dimethylaminoethylamino)-4-methoxy-5-[[4-[1-(trideuteriomethyl)indol-3-yl]pyrimidin-2-yl]amino]phenyl]prop-2-enamide metabolite formation preincubated for 10 mins under shaking condition followed by NADPH generating system addition and measured up to 60 mins by LC-MS/MS analysis; type: ADME, Microsome; conditions: 1 h, time <=70 min
[2] = Oral bioavailability in Sprague-Dawley rat at 2 mg/kg, IG administered as single dose and measured upto 24 hrs by LC-MS/MS analysis; type: ADME, organism-based; conditions: in vivo
[3] = Intrinsic clearance in Sprague-Dawley rat liver microsomes preincubated for 10 mins under shaking condition followed by NADPH generating system addition and measured up to 60 mins by LC-MS/MS analysis; type: ADME, Microsome; conditions: 1 h, time <=70 min
[4] = Toxicity in Balb/c nude mouse xenografted with human NCI-H1975 cells harboring EGFR L858R/T790M mutant assessed as change in body weight at 3 to 5 mg/kg, po QD administered via gavage for 24 days and measured twice weekly; type: organism-based; conditions: in vivo, 576 h, dose 3-5 mg/kg, time 24 day
[5] = Cmax in Sprague-Dawley rat assessed as AZ5104-D2 at 6 mg/kg/day, IG administered for 7 consecutive days by LC-MS/MS analysis; type: ADME, organism-based; set-up: route […], dose 6 mg/kg/day, time 7 day; conditions: in vivo, po, 168 h
in vivo [6] = conditions: Sprague-Dawley, rat, po, 12 mg/kg
[7] = Half life in cynomolgus monkey liver microsomes preincubated for 10 mins under shaking condition followed by NADPH generating system addition and measured up to 60 mins by LC-MS/MS analysis
in vivo [8] = conditions: Sprague-Dawley, rat, po, 2 mg/kg
in vivo [9] = conditions: Sprague-Dawley, rat, iv, 2 mg/kg
[10] = Oral bioavailability in Sprague-Dawley rat at 12 mg/kg, IG administered as single dose and measured upto 24 hrs by LC-MS/MS analysis; type: ADME, organism-based; conditions: in vivo
Cytochrome P450 2D6 = Cytochrome P450 2D6 (Homo sapiens, UniProt P10635); test: Inhibition of CYP2D6 in human liver microsomes using dextromethorphan as substrate preincubated for 10 mins in presence of NADPH generating system followed by substrate addition and measured after 20 mins by LC-MS/MS analysis; type: ADME
Chain of Cytochrome P450 2D6 (P10635 whole entry): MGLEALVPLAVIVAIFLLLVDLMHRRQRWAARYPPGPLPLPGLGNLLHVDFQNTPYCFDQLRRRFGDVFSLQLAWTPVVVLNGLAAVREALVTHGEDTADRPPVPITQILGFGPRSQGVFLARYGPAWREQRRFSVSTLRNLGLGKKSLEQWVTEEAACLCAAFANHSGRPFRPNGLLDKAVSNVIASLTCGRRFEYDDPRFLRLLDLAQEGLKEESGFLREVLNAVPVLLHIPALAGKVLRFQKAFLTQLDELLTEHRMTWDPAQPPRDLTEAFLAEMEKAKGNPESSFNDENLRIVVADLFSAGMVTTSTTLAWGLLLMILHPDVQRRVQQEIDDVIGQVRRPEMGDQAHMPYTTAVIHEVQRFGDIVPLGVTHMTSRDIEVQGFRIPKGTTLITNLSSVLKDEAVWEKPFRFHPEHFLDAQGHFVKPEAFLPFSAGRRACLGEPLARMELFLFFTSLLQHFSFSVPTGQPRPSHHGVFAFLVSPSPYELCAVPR

[11] = Cmax in Sprague-Dawley rat at 6 mg/kg/day, IG and measured on day 7 by LC-MS/MS analysis; type: ADME, organism-based; set-up: route […], dose 6 mg/kg/day, time 7 day; conditions: in vivo, po
in vivo [12] = conditions: Sprague-Dawley, rat, po, 6 mg/kg
[13] = Drug metabolism in cynomolgus monkey liver microsomes assessed as 3,3-dideuterio-N-[4-methoxy-2-[methyl-[2-(methylamino)ethyl]amino]-5-[[4-[1-(trideuteriomethyl)indol-3-yl]pyrimidin-2-yl]amino]phenyl]prop-2-enamide metabolite formation preincubated for 10 mins under shaking condition followed by NADPH generating system addition and measured up to 60 mins by LC-MS/MS analysis; type: ADME, Macaca fascicularis, Microsome; conditions: 1 h, time <=70 min
[14] = Tmax in Sprague-Dawley rat assessed as AZ5104-D2 at 6 mg/kg/day, IG administered for 7 consecutive days by LC-MS/MS analysis; type: ADME, organism-based; conditions: in vivo, po, 168 h, time 7 day
Cytochrome P450 2C8 = target: T1, Cytochrome P450 2C8 (Homo sapiens, UniProt P10632); test: Inhibition of CYP2C8 in human liver microsomes using amodiaquine as substrate preincubated for 10 mins in presence of NADPH generating system followed by substrate addition and measured after 10 mins by LC-MS/MS analysis; type: ADME
T1 sequence (P10632 whole entry): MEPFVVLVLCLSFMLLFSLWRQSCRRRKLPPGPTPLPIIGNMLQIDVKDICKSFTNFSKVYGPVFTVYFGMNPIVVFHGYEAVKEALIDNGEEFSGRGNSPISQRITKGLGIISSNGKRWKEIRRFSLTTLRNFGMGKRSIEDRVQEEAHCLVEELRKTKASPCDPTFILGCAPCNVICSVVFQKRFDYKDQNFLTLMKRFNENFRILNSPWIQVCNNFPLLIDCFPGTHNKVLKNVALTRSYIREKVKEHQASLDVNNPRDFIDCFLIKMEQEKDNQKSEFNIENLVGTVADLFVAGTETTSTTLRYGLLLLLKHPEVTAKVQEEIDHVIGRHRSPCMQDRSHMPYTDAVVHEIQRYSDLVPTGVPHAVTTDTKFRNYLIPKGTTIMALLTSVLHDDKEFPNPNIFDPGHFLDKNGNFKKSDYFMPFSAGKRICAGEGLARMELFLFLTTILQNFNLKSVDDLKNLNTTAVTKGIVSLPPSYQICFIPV

[15] = Drug metabolism in cynomolgus monkey liver microsomes assessed as 3,3-dideuterio-N-[2-(2-dimethylaminoethylamino)-4-methoxy-5-[[4-[1-(trideuteriomethyl)indol-3-yl]pyrimidin-2-yl]amino]phenyl]prop-2-enamide metabolite formation preincubated for 10 mins under shaking condition followed by NADPH generating system addition and measured up to 60 mins by LC-MS/MS analysis; type: ADME, Macaca fascicularis, Microsome; conditions: 1 h, time <=70 min
[16] = Tmax in Sprague-Dawley rat at 12 mg/kg, IG administered as single dose and measured upto 24 hrs by LC-MS/MS analysis; type: ADME, organism-based; conditions: in vivo, po
[17] = as §1, with “Sprague-Dawley rat” for “CD1 mouse”; type: ADME, Microsome; conditions: 1 h, time <=70 min
in vivo [18] = conditions: Sprague-Dawley, rat, po, 12 mg/kg; remark: listed apart in the source
[19] = Tmax in Sprague-Dawley rat at 6 mg/kg/day, IG administered for 7 consecutive days by LC-MS/MS analysis; type: ADME, organism-based; conditions: in vivo, po, time 7 day
[20] = Tmax in Sprague-Dawley rat at 2 mg/kg, IG administered as single dose and measured upto 24 hrs by LC-MS/MS analysis; type: ADME, organism-based; conditions: in vivo, po
[21] = as §1, with “Beagle dog” for “CD1 mouse”; type: ADME, Canis lupus familiaris, Microsome; conditions: 1 h, time <=70 min
in vivo [22] = conditions: Sprague-Dawley, rat, plasma, po, 6 mg/kg
Cytochrome P450 2B6 = target: T2, Cytochrome P450 2B6 (Homo sapiens, UniProt P20813); test: Inhibition of CYP2B6 in human liver microsomes using bupropion as substrate preincubated for 10 mins in presence of NADPH generating system followed by substrate addition and measured after 10 mins by LC-MS/MS analysis; type: ADME
T2 sequence (P20813 whole entry): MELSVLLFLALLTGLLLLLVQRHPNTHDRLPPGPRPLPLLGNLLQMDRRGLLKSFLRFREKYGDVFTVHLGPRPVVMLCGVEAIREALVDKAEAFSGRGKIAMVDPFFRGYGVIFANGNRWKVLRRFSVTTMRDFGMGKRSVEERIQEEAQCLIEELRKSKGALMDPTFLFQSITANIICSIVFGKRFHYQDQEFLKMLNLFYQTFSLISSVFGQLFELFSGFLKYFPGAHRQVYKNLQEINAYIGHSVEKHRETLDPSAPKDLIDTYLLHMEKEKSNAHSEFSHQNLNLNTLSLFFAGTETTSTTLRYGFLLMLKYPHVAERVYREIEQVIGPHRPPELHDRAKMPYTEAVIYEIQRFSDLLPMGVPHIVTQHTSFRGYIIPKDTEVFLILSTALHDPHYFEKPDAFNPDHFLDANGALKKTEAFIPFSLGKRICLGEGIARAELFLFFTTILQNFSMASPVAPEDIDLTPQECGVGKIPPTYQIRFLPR

Q: Which results are given for `CS(=O)(=O)O.[2H]C([2H])=CC(=O)Nc1cc(Nc2nccc(-c3cn(C([2H])([2H])[2H])c4ccccc34)n2)c(OC)cc1N(C)CCN(C)C`?
A: Drug metabolism [1]: Metabolite_Detected; bioavailability [2]: 41.2%; CLint [3]: 40 µL/min/mg; Activity [4]: Non-Toxic; Cmax [5]: 0.395 nM; CL/F at 24 h (in vivo [6]): 248 mL/min/kg; half-life at 1 h [7]: 0.427 h; half-life at 24 h (in vivo [8]): 3.76 h; half-life at 24 h (in vivo [9]): 5.4 h; bioavailability [10]: 43%; IC50 (Cytochrome P450 2D6): > 50 µM; Cmax [11]: 180 nM; CL/F at 168 h (in vivo [12]): 325 mL/min/kg; Drug metabolism [13]: Metabolite_Detected; Tmax [14]: 6.8 h; IC50 (Cytochrome P450 2C8): 29.3 µM; Drug metabolism [15]: Metabolite_Detected; Tmax [16]: 5 h; Drug metabolism [17]: Metabolite_Detected; half-life at 24 h (in vivo [18]): 4.04 h; Tmax [19]: 4.67 h; Tmax [20]: 4.17 h; Drug metabolism [21]: Metabolite_Detected; half-life at 168 h (in vivo [22]): 3.27 h; IC50 (Cytochrome P450 2B6): > 50 µM
